Test results reported in patent US8771734B2, “Sustained-release hydrogel preparation” (Medgel Corporation, priority 2003, dated 2014).

Assay: In vitro release experiment (Pt by atomic absorption)
Format: physicochemical
Details: when no interaction with gelatin was created
Description: The thus resulting gelatin sheet of 2×2 cm following impregnation of the aqueous CDDP solution (water content: 97%) was placed in 10 ml of a phosphate buffer (PBS, pH 7.4) containing 0.1% Tween80, and shaken in a 37° C. incubator at 60 rpm/min. At a predetermined time, 5 ml of the supernatant was taken out. The same amount of 0.1% Tween80/PBS was immediately added to the sheet and put back in the incubator. Pt concentration in the samples was quantitatively determined three times using an atomic absorption photometer (Hitachi Model Z-8000, Hitachi, Ltd., Tokyo).

[NH2][Pt]([NH2])([Cl])[Cl] [CDDP, cisplatin]
time until CDDP is entirely released: approximately 3 hrs
